The source of these data is patent publication US12053522B2, “Pro-inflammatory and anti-cancer functions of toll-like receptor 4 antagonists” (Children's Medical Center Corporation, priority 2015, dated 2024).

Assay type in all cases: cell-based, mouse
One experiment concerns bone marrow derived DCs. The experiment can be described thus: IL-1β release from DCs (ELISA). As for the experimental part: NLRP3 KO and ASC KO mice were kindly provided by Dr. T. Horng, Harvard School of Public Health. Caspase-11 KO mice were kindly provided by Dr. Junying Yuan, Harvard Medical School. Caspase-1 single KO mice were kindly provided by Thirumala-Devi Kanneganti (St. Judes). DCs were differentiated from bone marrow in IMDM (Gibco), 10% B16-GM-CSF derived supernatant, 2 μM 2-mercaptoethanol and 10% FBS and used after 6 day of culture. […] MO were differentiated from bone marrow in DMEM (Gibco), 30% L929 supernatant, and 10% FBS. Immortal MΦs were cultured in DMEM supplemented with 10% L929 supernatant and 10% FBS. […] For experiments using pan-caspase inhibitor, cells were treated with zVADfmk (20 μM) 30 min before inflammasome activation stimuli addition. Cycloheximide (50 ng/ml) was added at the time of stimuli administration. Transfection with DOTAP was performed following the manufacturer instructions. […] 30 min later, the DOTAP/LPS or DOTAP/oxPAPC complex were added to the culture.
RNA was isolated from cell cultures using Qiashedder (Qiagen) and GeneJET RNA Purification Kit (Life Technologies). Purified RNA was analyzed for gene expression on a CFX384 real time cycler (Bio-rad) using TaqMan RNA-to-CT 1-Step Kit (Applied Biosystems) with probes purchased from Life Technologies specific for viperin (Mm00491265_m1), IFNb1 (Mm00439552_s1), IL6 (Mm00446190_m1), caspase-1 (Mm00438023_m1), caspase-11 (Mm00432307_m1), Nlrp3 (Mm00840904_m1), Asc (Mm00445747_g1), TBP (Mm00446971_m1) or GAPDH (Mm99999915_g1). ELISA for IL-1β, IL-2, IL-17, IL-18, TNFα and IFNγ were performed using Mouse Ready-SET-Go ELISA kits (eBioscience). To measure secreted cytokines, supernatant were collected, clarified by centrifugation and stored at −20° C. Cell associated cytokines were measured as follows: 96-well plates were centrifuged and supernatant was discarded. 250 μl of PBS were added to each well. Cells were frozen and thawed two times at −80° C. and then stored at −20° C. for further analysis.
On the technique in general: ELISA stands for enzyme-linked immunosorbent assay.

Experiment [1] deals with primary bone marrow-derived MΦs. The experiment can be described thus: IL-1β release from macrophages (ELISA). From the text:
(§1) C57BL/6J (Jax 000664), C57BL/6NJ (Jax 005304), CD14 KO (Jax 003726), caspase-1/-11 dKO mice (Jax 016621), TLR4-mutant (C3H/HeJ, Jax 000659), and wild-type control for TLR4-mutant (C3H/HeSNJ, Jax 000661) were purchased from Jackson Labs. NLRP3 KO and ASC KO mice were kindly provided by Dr. T. Horng, Harvard School of Public Health. Caspase-11 KO mice were kindly provided by Dr. Junying Yuan, Harvard Medical School. Caspase-1 single KO mice were kindly provided by Thirumala-Devi Kanneganti (St. Judes). DCs were differentiated from bone marrow in IMDM (Gibco), 10% B16-GM-CSF derived supernatant, 2 μM 2-mercaptoethanol and 10% FBS and used after 6 day of culture. DC purity was assessed by flow cytometry and was usually higher than 90%. […]
RNA was isolated from cell cultures using Qiashedder (Qiagen) and GeneJET RNA Purification Kit (Life Technologies). Purified RNA was analyzed for gene expression on a CFX384 real time cycler (Bio-rad) using TaqMan RNA-to-CT 1-Step Kit (Applied Biosystems) with probes purchased from Life Technologies specific for viperin (Mm00491265_m1), IFNb1 (Mm00439552_s1), IL6 (Mm00446190_m1), caspase-1 (Mm00438023_m1), caspase-11 (Mm00432307_m1), Nlrp3 (Mm00840904_m1), Asc (Mm00445747_g1), TBP (Mm00446971_m1) or GAPDH (Mm99999915_g1). ELISA for IL-1β, IL-2, IL-17, IL-18, TNFα and IFNγ were performed using Mouse Ready-SET-Go ELISA kits (eBioscience). […]

Experiment [2] deals with DCs. The experiment can be described thus: TNFα secretion from DCs (ELISA). The conditions noted are these: WT and caspase-11 KO DCs.
Excerpt: as §1, with “90%. MO were differentiated from bone marrow in DMEM (Gibco), 30% L929 supernatant, and 10% FBS. Immortal MΦs were cultured in DMEM supplemented with 10% L929 supernatant and 10% FBS. Splenic DCs were purified as described previously (Zanoni et al., 2012). Prior to stimulations, cultured cells were washed and re-plated in DMEM supplemented with 10% FBS at a concentration of 1×10^6 cells/ml in a final volume of 100 μl. For experiments using pan-caspase inhibitor, cells were treated with zVADfmk (20 μM) 30 min before inflammasome activation stimuli addition.” for “90%.”
RNA was isolated from cell cultures using Qiashedder (Qiagen) and GeneJET RNA Purification Kit (Life Technologies). Purified RNA was analyzed for gene expression on a CFX384 real time cycler (Bio-rad) using TaqMan RNA-to-CT 1-Step Kit (Applied Biosystems) with probes purchased from Life Technologies specific for viperin (Mm00491265_m1), IFNb1 (Mm00439552_s1), IL6 (Mm00446190_m1), caspase-1 (Mm00438023_m1), caspase-11 (Mm00432307_m1), Nlrp3 (Mm00840904_m1), Asc (Mm00445747_g1), TBP (Mm00446971_m1) or GAPDH (Mm99999915_g1). ELISA for IL-1β, IL-2, IL-17, IL-18, TNFα and IFNγ were performed using Mouse Ready-SET-Go ELISA kits (eBioscience). […] Cell associated cytokines were measured as follows: 96-well plates were centrifuged and supernatant was discarded. […]

The test system of another experiment is LPS-pretreated DCs. The experiment can be described thus: ASC and caspase-1 containing speck formation (immunofluorescence). The conditions noted are these: ATP 1 mM, oxPAPC 120 μM. As for the experimental part: For live or permeability experiment, MitotTacker CMX-ROS (Life Technologies) or Zombie Red (BioLegend) dyes were used in according to manufacturer's instructions before fixation with 4% paraformaldehyde. After permeabilization step using 0.1% Triton X-100 0.2% BSA-PBS, cells were blocked in 2% BSA-PBS and incubated with rabbit anti-ASC pAb (AL177, Adipogen) and mouse anti-caspase-1 mAb (Casper-1, Adipogen) followed by Alexa Fluor 488-conjugated chicken anti-rabbit IgG (Life Technologies) and Alexa Fluor 568-conjugated goat anti-mouse IgG (Life Technologies) diluted in blocking buffer. Nuclei were counterstained with DAPI (Life Technologies) or DRAQ5 (BioLegend). A Zeiss Axiovert 200M confocal microscope or an Olympus BX41 fluorescence microscope was used to acquire images.

The test system of experiment [3] is DCs. The experiment can be described thus: Pyroptosis / cell death by LDH release. The conditions noted are these: LPS-primed DCs. From the text:
In addition to promoting IL-β release, inflammasome activation has been typically associated with the induction of cell death (Aachoui, Y., (2013b). Current opinion in microbiology 16, 319-326). Without wishing to be bound by theory, cell death via non-canonical inflammasomes is believed to depend upon the enzymatic activity of caspase-11, which must cleave at least two proteins, gasdermin d and pannexin-1 (Kayagaki, N. et al., (2015) Nature 526, 666-671; Shi, J. et al., (2015) Nature 526, 660-665; Yang, D. et al., (2015) Immunity 43, 923-932). […] To assess this possibility directly, pyroptosis induction after oxPAPC administration or LPS transfection in LPS-primed DCs was measured. Pyroptosis is characterized by a rapid loss of plasma membrane integrity, which should release cytoplasmic proteins (and organelles) from the cell body. LDH release in the supernatant was used to assess membrane permeabilization of the cell population during pyroptosis. LPS/ATP-treated cells released LDH starting 4 hours after treatment (FIG. 48A); this combination was a well-defined activator of inflammasome-mediated cell death (Aachoui, Y., (2013b). Current opinion in microbiology 16, 319-326). Cells transfected with LPS, independently from LPS priming, died at later time points than cells treated with ATP (FIG. 48A).
A general note: Release of lactate dehydrogenase indicates damage to the cell membrane.

Experiment [4] concerns DCs. The experiment can be described thus: Single cell viability assay of inflammasome-containing cells (Zombie dye, active mitochondria). As to conditions: LPS-pretreated DCs.
Description: BMDCs cells were treated with LPS (1 μg/mL) for 3 hours before inflammasome-inducing stimuli challenge. For live or permeability experiment, MitotTacker CMX-ROS (Life Technologies) or Zombie Red (BioLegend) dyes were used in according to manufacturer's instructions before fixation with 4% paraformaldehyde. After permeabilization step using 0.1% Triton X-100 0.2% BSA-PBS, cells were blocked in 2% BSA-PBS and incubated with rabbit anti-ASC pAb (AL177, Adipogen) and mouse anti-caspase-1 mAb (Casper-1, Adipogen) followed by Alexa Fluor 488-conjugated chicken anti-rabbit IgG (Life Technologies) and Alexa Fluor 568-conjugated goat anti-mouse IgG (Life Technologies) diluted in blocking buffer. Nuclei were counterstained with DAPI (Life Technologies) or DRAQ5 (BioLegend). A Zeiss Axiovert 200M confocal microscope or an Olympus BX41 fluorescence microscope was used to acquire images.
For experiment [5], the system named is DCs. The experiment can be described thus: DC viability / survival (7-AAD staining). The conditions noted are these: up to 72 hours after treatment; ATP and oxPAPC in LPS-treated DCs. From the text:
It was contemplated that living cells should resist staining with Zombie dye, a stain that labels the cytosol of cells whose plasma membranes have been disrupted. Cells with intact plasma membranes should also retain functional organelles. In contrast, pyroptotic cells should have lost their organelles and should stain strongly for Zombie dye. […] Moreover, not only did oxPAPC not induce pyroptosis, this lipid counteracted the slow acting death pathways activated by LPS in DCs (Zanoni, I. et al. (2009) Nature 460, 264-268). For this experiment, the health of individual cells within the population up to 72 hours after treatment was assessed by flow cytometry, using the viability stain 7-AAD, which detected genomic DNA within cells whose membranes had been permeabilized (Paterson, A. M. et al., (2011) J Immunol 187, 1097-1105).

For the compound `Nc1ncnc2c1ncn2[C@@H]1O[C@H](COP(=O)(O)OP(=O)(O)OP(=O)(O)O)[C@@H](O)[C@H]1O` [ATP], the IL-1β release entry was “completely lost” in the experiment with bone marrow derived DCs (BMDCs lacking caspase-1/-11 or ASC); “elicit IL-1β release from DCs in a dose-dependent manner” with bone marrow derived DCs (LPS-primed DCs); “remained intact” in the experiment with bone marrow derived DCs (LPS-primed caspase-11 KO DCs); “NLRP3 dependent” with bone marrow derived DCs (NLRP3-deficient BMDCs); “remained intact” with bone marrow derived DCs (Pam3CSK-primed caspase-11 KO cells); “promoted the efficient release of IL-1β” in experiment [1]. The “cell-associated IL-1β levels” value with bone marrow derived DCs (LPS-primed, compared with LPS alone) is “similar”. Moreover, in the experiment on DCs [2], the TNFα secretion entry is “not affected”. In the experiment with LPS-pretreated DCs, the “formation of ASC and caspase-1-containing specks” value is reported as “induced the formation”. Moreover, in the experiment on DCs [3], the “time from which LDH was released” value is not below 4 h. Further, the “mitochondria and Zombie dye staining of cells containing ASC specks” value with DCs [4] is “lost mitochondria and stained positive for Zombie dye”. The “DC viability (7-AAD)” value in the experiment on DCs [5] is listed as “diminished DC viability”.
